One assay concerns the target T1, wild-type NL4-3 protease (Human immunodeficiency virus type 1 group M subtype B, UniProt P12497, Q495K).
T1 construct: the gene encoding the desired HIV-1 protease was subcloned into the heat-inducible pXC35 expression vector; made in house
The assay can be described thus: Ki assay (FRET enzyme inhibition), wild-type protease. It is filed as biochemical, HIV-1. The conditions noted are these: limit of detection 5 pM, read-out: Ki WT. The method, then:
(§1) The highly mutated, resistant, protease variant genes were purchased on a pET11a plasmid with codon optimization for protein expression in Escherichia coli (Genewiz). A Q7K mutation was included to prevent autoproteolysis ([Rosé et al., 1993]). The expression, isolation, and purification of WT and mutant HIV-1 proteases used for enzymatic assays were carried out as previously described ([Henes et al., 2019]; [King et al., 2002]; [Özen et al., 2014]). Briefly, the gene encoding the desired HIV-1 protease was subcloned into the heat-inducible pXC35 expression vector (ATCC) and transformed into E. coli TAP-106 cells. Cells grown in 6 l of Terrific Broth were lysed with a cell disruptor twice, and the protein was purified from inclusion bodies ([Hui et al., 1993]). Inclusion bodies, isolated as a pellet after centrifugation, were dissolved in 50% acetic acid followed by another round of centrifugation at 19,000 rpm for 30 min to remove insoluble impurities. Size-exclusion chromatography was carried out on a 2.1 l Sephadex G-75 Superfine (Sigma Chemical) column equilibrated with 50% acetic acid to separate high molecular weight proteins from the desired protease. Pure fractions of HIV-1 protease were refolded using a tenfold dilution of refolding buffer (0.05 M sodium acetate at pH 5.5, 5% ethylene glycol, 10% glycerol, and 5 µM DTT). Folded protein was concentrated to 0.5–3 mg/ml and stored. The stored protease was used in KM and Ki assays.
(§2) Enzyme inhibition constants (Ki values) were determined as previously described ([Henes et al., 2019]; [Lockbaum et al., 2019]; [Matayoshi et al., 1990]; [Windsor and Raines, 2015]). Briefly, in a 96-well plate, inhibitors were serially diluted down from […] depending on protease resistance. All samples were incubated with 5 nM protein for 1 hr. A 10-amino acid substrate containing an optimized protease cleavage site ([Windsor and Raines, 2015]), purchased from Bachem, with an EDANS/DABCYL FRET pair was dissolved in 4% DMSO at 120 µM. Using a PerkinElmer Envision plate reader, 5 µl of the 120 µM substrate were added to the 96-well plate to a final concentration of 10 µM. […] Data was analyzed with Prism7.

Another assay has as its target T2, I84V mutant protease (Human immunodeficiency virus type 1 group M subtype B, UniProt P12497, I572V/Q495K).
T2 construct: the gene encoding the desired HIV-1 protease was subcloned into the heat-inducible pXC35 expression vector; made in house
The assay can be described thus: Ki assay (FRET enzyme inhibition), I84V protease. The conditions noted are these: I84V drug-resistant protease variant. The assay is classed as biochemical, HIV-1. The method, then:
as §1, §2

Assay [1] concerns the target T3, I50V/A71V mutant protease (Human immunodeficiency virus type 1 group M subtype B, UniProt P12497, A559V/I538V/Q495K).
T3 construct: the gene encoding the desired HIV-1 protease was subcloned into the heat-inducible pXC35 expression vector; made in house
Nature of the assay: Ki assay (FRET enzyme inhibition), I50V/A71V protease. The conditions noted are these: I50V/A71V drug-resistant protease variant. The assay is classed as biochemical, HIV-1. The method, then:
as §1, §2

Another assay deals with wild-type virus NL4-3. Nature of the assay: TZM infection assay (cell culture-based viral inhibition), wild-type virus. Also on record: species or system HIV-1. The conditions noted are these: Human immunodeficiency virus 1, NL43; wild-type NL4-3 virus; concentration at time of virus production reducing infectivity by 50%; TZM-bl readout. The method, then:
(§3) PI dilutions were prepared by taking 10 µM stocked and performing a fivefold serial dilution using RPMI media (final drug concentration is […]). One dilution of drug was added to each well of a 24-well plate and repeated so each virus would have a full set of dilutions. Viruses for the assay were made by seeding 3 × 10^6 CEM cells in a 24-well plate and incubating with 250 µl of virus at 37°C for 2–3 hr before bringing the culture to 10 ml with RPMI media. After 48 hr, the medium was changed and repeated every 48 hr after until the culture had undergone CPE. Infected CEM cells were collected and diluted so that 1 ml of cells could be plated in each well containing a unique drug dilution. Then 24 hr later the virus supernatant was collected from each well followed by filtering through a […] then placed in –80°C. Viruses were thawed and added to 96-well plates in triplicate. TZM-bl cells were collected and diluted to a concentration of 2 × 10^5 cells/ml, 100 µl were added on top of the pre-plated viruses. Plates were kept in 37°C, 5% CO2 in an incubator for 48 hr. After 48 hr, the cells in the plates were lysed by removing the medium, washing two times with 100 µl PBS, and then lysed with 1× lysis buffer (made from 5× Promega Firefly Lysis Buffer). Plates were frozen for at least 24 hr and then thawed for 2 hr before analyzing with Promega Firefly Luciferase Kit on a luminometer. Data was analyzed with Prism 7 to fit sigmoidal dose–response curves.

Assay [2] deals with HIV-1 NL4-3 wild-type virus. Nature of the assay: Selection for resistance in CEMx174 culture with escalating inhibitor, start wild-type virus, Primer ID deep sequencing. It is filed as cell-based. The method, then: . The selection experiments were performed under two separate starting conditions: first when the starting virus was generated from the NL4-3 clone (this clone closely approximates the clade B consensus for the protease amino acid sequence and will be referred to as ‘wild type’), then again when the starting virus was a mixture of 26 isogenic viruses each with a single mutation associated with drug resistance in the NL4-3 background. […]. For technical reasons, only five of the selections starting with the mixture of mutants reached an inhibitor concentration as high as 400 nM and are reported here (Figure 2—figure supplement 3).
Resistance mutations selected in the protease coding domain during the escalating selective pressure of increasing PI concentration were examined at various timepoints using a next-generation sequencing (NGS) protocol that included Primer ID with the MiSeq platform ([Zhou et al., 2015]). We first examined the sequence of the most abundant variant in each of the two selection schemes present at the highest inhibitor concentration reached (Figure 2A). For those selections that reached 5 μM, 8–14 mutations were present in the most abundant variant. Typically the next two most abundant variants in the population differed by a single amino acid, and on average the three most abundant variants in the 5 μM cultures accounted for 88% of the total viral population (Figure 2—source data 1). Evolution of resistance followed two pathways, one based on I50V and one based on I84V. In three cultures, V2wt, V5wt, and V2mut (which reached either 4 or 5 μM final drug concentration; V2wt indicates the virus pool selected with UMASS-2 starting with wild-type virus), these two mutations, I84V and I50V, became linked on the same genome (Figure 2A) showing they are not mutually exclusive; […].
(§4) An aliquot of 3 × 10^6 CEMx174 cells was incubated at 37°C for 2–3 hr with 250 µl of a virus stock generated from the HIV-1 infectious molecular clone pNL4-3. The culture volume was then brought to 10 ml with RPMI medium. […] After 48 hr and every 48 hr after, the cells were pelleted by centrifugation and 10 ml of fresh medium and inhibitors were added. When the culture had undergone extensive cytopathic effect (CPE) indicative of viral replication, the supernatant medium and the cells were harvested separately and stored at –80°C. The virus-containing supernatant was used to start the next round of infection, and after several rounds at the initial concentration, the inhibitor concentration was increased 1.5-fold at each subsequent round of virus passage.
We used the PID protocol to prepare MiSeq PID libraries with multiplexed primers. Viral RNA was extracted from plasma samples using the QIAamp viral RNA mini kit (QIAGEN, Hilden, Germany). Complementary DNA (cDNA) was synthesized using a cDNA primer mixture targeting protease (PR) with a block of random nucleotides in each cDNA primer serving as the PID, and SuperScript III RT (Thermo Fisher). After two rounds of bead purification of the cDNA, we amplified the cDNA using a mixture of a forward primer that targeted the upstream coding region, followed by a second round of PCR to incorporate the Illumina adaptor sequences. Gel-purified libraries were pooled and sequenced using the MiSeq 300 base paired-end sequencing protocol (Illumina). The sequencing covered the HIV-1 PR region (HXB2 2648-2914, 3001-3257).
We used the Illumina bcl2fastq pipeline for the initial processing and constructed template consensus sequences (TCSs) with TCS pipeline version 1.33 (https://github.com/SwanstromLab/PID) ([Zhou, 2019]). We then aligned TCSs to an HXB2 reference to remove sequences not at the targeted region or that had large deletions. We used the Entropy tool at LANL (https://www.hiv.lanl.gov/content/sequence/ENTROPY/entropy.html) to calculate entropy for each specimen. The sequencing data is available at NIH Sequencing Read Archive (SRA) under BioProject ID PRJNA853351.

In assay [3] the test system is virus pool selected to 5000 nM inhibitor. The assay can be described thus: TZM infection assay, inhibitor-selected resistant virus pools. It is filed as cell-based, HIV-1. The conditions noted are these: Human immunodeficiency virus 1, read-out: EC50 Viral culture (5000 nM). The method, then: In addition to the sequence of the terminally selected virus, we validated that selection occurred over the entire course of the selection protocol. […] In comparing the number of mutations present in cultures using the I84V versus the I50V pathway, we noted that on average there were more mutations in the I50V viruses at the intermediate drug concentration compared to the I84V viruses (100 nM, p=0.03), and this trend continued at the higher drug concentration.
as §4, §3

What is called Ki is a dissociation constant, usually derived from enzyme kinetics or from competition with a known ligand. The EC50 is the concentration giving half of the maximal effect.

A value given as a limit tells only on which side of the number the result lay.

For `CCC(CC)CN(C[C@@H](O)[C@H](Cc1ccccc1)NC(=O)O[C@H]1CO[C@H]2OCC[C@H]21)S(=O)(=O)c1ccc(CO)cc1` [UMASS-8], the inhibition constant Ki on wild-type NL4-3 protease was less than 0.005 nM; at I84V mutant protease, less than 0.005 nM; in assay [1], 0.0554 ± 0.004 nM. In the assay on wild-type virus NL4-3, this compound showed a 50% effective concentration (EC50) of 4.2 ± 0.9 nM. Moreover, the “Abundance of variant at the last time point” value (“Abundance of variant” below) in assay [2] (variant 10F/12K/33F/46I/47V/50V/53L/54L/63P/71V/82I/85V, passage 67, [PI] 5000 nM) came out at 55.4%; in assay [2] (variant 10F/12K/33F/46I/47V/50V/53L/54L/63P/71V/82I/85V/87K, passage 67, [PI] 5000 nM), 0.1%; in assay [2] (variant 10F/33F/46I/47V/50V/53L/54L/63P/71V/82I/85V, passage 67, [PI] 5000 nM), 41.9%.

For `CC(C)CN(C[C@@H](O)[C@H](Cc1ccccc1)NC(=O)O[C@H]1CO[C@H]2OCC[C@H]21)S(=O)(=O)c1ccc(N)cc1` [DRV, Darunavir, reference compound], the EC50 in the assay on wild-type virus NL4-3 was 7.7 ± 1.6 nM; in assay [3], greater than 100000 nM. Also, the “Abundance of variant” value in assay [2] (variant 10I/32I/41I/46I/47V/82I/84V/85V, passage 43, [PI] 1350 nM) stood at 10.3%; in assay [2] (variant 32I/41I/46I/47V/82I/84V/85V, passage 43, [PI] 1350 nM) it was 62.8%; in assay [2] (variant 32I/41I/46I/47V/82L/84V/85V, passage 43, [PI] 1350 nM), 10.1%.

Consider `CC[C@H](C)CN(C[C@@H](O)[C@H](Cc1ccccc1)NC(=O)O[C@H]1CO[C@H]2OCC[C@H]21)S(=O)(=O)c1ccc(OC)cc1` [UMASS-2], for which the results for the Ki (at wild-type NL4-3 protease; on I84V mutant protease; in assay [1]) were less than 0.005 nM, less than 0.005 nM and 0.015 ± 0.0027 nM, respectively. Further, the EC50 with wild-type virus NL4-3 was found to be 2.4 ± 0.3 nM. The “Abundance of variant” value in assay [2] (variant 10F/33F/46I/47V/50V/71V/82I/84V, passage 82, [PI] 5000 nM) stood at 37.5%; in assay [2] (variant 28S/32I/33F/46I/47V/50V/71V/82I/84V, passage 82, [PI] 5000 nM), 33.5%; in assay [2] (variant 33F/46I/47V/50V/71V/82I/84V, passage 82, [PI] 5000 nM) it was 4.2%.

Consider `CCC(CC)CN(C[C@@H](O)[C@H](Cc1ccccc1)NC(=O)O[C@H]1CO[C@H]2OCC[C@H]21)S(=O)(=O)c1ccc2ncsc2c1` [UMASS-10], for which the Ki was less than 0.005 nM on wild-type NL4-3 protease, 0.0143 ± 0.0093 nM on I84V mutant protease and 0.0058 ± 0.0011 nM in assay [1]. The compound also came in with an EC50 in the assay on wild-type virus NL4-3 of 4.1 ± 0.9 nM. Also, the “Abundance of variant” value in assay [2] (variant 10F/13V/33F/43T/46I/47V/50V/54L/71V/77I/82L/88S, passage 77, [PI] 5000 nM) is given as 1.6%; in assay [2] (variant 10F/13V/33F/43T/46I/47V/50V/54L/71V/82L/87K/88S, passage 77, [PI] 5000 nM), 0.2%; in assay [2] (variant 10F/13V/33F/43T/46I/47V/50V/54L/71V/82L/88S, passage 77, [PI] 5000 nM), 91.2%.
